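In this assay, cells in 96-well plates receive the compound at five concentrations for 48 hours. Endpoints are linearly interpolated between the surrounding concentrations. GI50 = concentration required for 50% inhibition of growth. TGI denotes the concentration required for complete inhibition of growth.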

Holding throughout (experiment): NCI anticancer screen, dose series, 48 h
In test [1] the test system is PC-3 prostate.
Test [2] has as its system A549 NSCLC.
Test [3] deals with HS 578T breast.
The test system of test [4] is COLO 205 colon.
The subject of test [5] is OVCAR-5 ovarian.
In test [6] the test system is A498 renal.
In test [7] the test system is U251 CNS.
For test [8], the system named is LOX IMVI melanoma.
The subject of test [9] is MDA-MB-231 breast.
Test [10] deals with T-47D breast.

Regarding `Brc1cccc(-c2cc(-c3ccc4nccnc4c3)[nH]n2)c1`, the GI50 in test [1] is 0.68 µM; in test [2], 0.86 µM; in test [3], 1.02 µM; in [4], 0.286 µM; in test [5] it was 2.64 µM; in test [6], 0.418 µM. Further, the GI50 in test [7] is 0.938 µM; in test [8], 1.42 µM; in test [9], 2.94 µM; in test [10], 1.24 µM. The TGI was above 250 µM in [1]; above 250 µM in [2]; above 250 µM in test [3]; 3.93 µM in test [4]; above 250 µM in test [5]; 1.86 µM in test [6]. Moreover, the TGI was 75.2 µM in test [7], above 250 µM in test [8], 23.7 µM in [9] and above 250 µM in [10].
Take `COc1cccc(CC(C)=C(c2ccc(OCCCN(C)C)cc2)c2ccc(OCCCN(C)C)cc2)c1`: the GI50 in test [1] was 0.693 µM; in [2] it was 0.557 µM; in [3], 0.527 µM; in [4] it was 0.432 µM; in test [5], 0.707 µM; in test [6], 3.19 µM. For the same molecule, the GI50 was 0.479 µM in test [7], 0.428 µM in test [8], 0.457 µM in test [9] and 0.437 µM in [10]. Also, the TGI was 2.46 µM in test [1]; 1.44 µM in [2]; 1.34 µM in [3]; 0.868 µM in test [4]; 2.06 µM in test [5]; 6.37 µM in [6]. The TGI in [7] turned out to be 0.987 µM; in [8] it was 0.807 µM; in [9], 0.869 µM; in test [10] it was 0.884 µM.
`COc1ccc2c(c1)C(=O)c1c-2c(N2CCNCC2)nc2ccccc12`: the GI50 is 0.267 µM in [1]; 3.3 µM in test [2]; 5.15 µM in [3]; 1.66 µM in [4]; 14.4 µM in test [5]; 7.4 µM in [6]. Also, the GI50 in [7] is 4.6 µM; in [8] it was 1.79 µM; in test [9], 3.21 µM; in test [10] it was 1.96 µM. Moreover, the TGI worked out at 8.67 µM in test [1]; 15.8 µM in [2]; 20.9 µM in [3]; 3.28 µM in test [4]; 30.2 µM in test [5]; 21.1 µM in [6]. For the same molecule, the TGI was found to be 16.6 µM in test [7], 3.5 µM in test [8], 11.1 µM in [9] and 4.41 µM in test [10].
`NC(=O)c1cccc(-c2cc(C(N)=O)ccc2Cl)c1`: the GI50 in test [1] is 3.03 µM; in test [2], 12.4 µM; in test [3], 2.59 µM; in [4], 3.21 µM; in test [5], 4.11 µM; in [6], 3.03 µM. For the same molecule, the GI50 in test [7] was 2.88 µM; in test [8], 4.84 µM; in test [9], 4.52 µM; in [10], 4.56 µM. The TGI in test [1] is 40.9 µM; in test [2], above 100 µM; in test [3], above 100 µM; in test [4], above 100 µM; in [5], above 100 µM; in [6], 15.3 µM. Moreover, the TGI in test [7], in [8], in [9] and in [10] was above 100 µM each time.
For `CCOC(=O)C1=C(C)N2C(=NC3=C(CCC/C3=C\c3ccc(Cl)cc3)C2c2ccc(Cl)cc2)S1` (stereo not given), the GI50 is 2.77 µM in [1]; 2.08 µM in test [2]; 5.33 µM in test [3]; 2.44 µM in [4]; 20.1 µM in test [5]; 1.37 µM in test [6]. In addition, the GI50 is 1.86 µM in test [7], 1.75 µM in test [8], 3.06 µM in test [9] and 3.61 µM in [10]. Besides, the TGI in [1] was above 100 µM; in test [2], 5.13 µM; in test [3] it was above 100 µM; in test [4] it was 4.65 µM; in [5] it was above 100 µM; in test [6], 3.09 µM. The TGI was found to be 4.06 µM in test [7], 3.15 µM in test [8], 16.6 µM in test [9] and 28.3 µM in test [10].
On to `C=CCCCOC1[C@H](OCc2ccccc2)C(OCc2ccccc2)C(OC)O[C@@H]1CNC(=O)c1cccc(I)c1` (stereo not given in full), for which the GI50 in test [1] is 2.19 µM; in test [2], 8.17 µM; in [3], 9.32 µM; in test [4], 5.02 µM; in [5] it was above 100 µM; in test [6], 7.2 µM. Moreover, the GI50 in test [7] is 4.66 µM; in [8] it was 2.81 µM; in [9], 8.34 µM; in test [10] it was 4.74 µM. Besides, the TGI in test [1] is above 100 µM; in [2], above 100 µM; in test [3], above 100 µM; in test [4] it was above 100 µM; in test [5] it was above 100 µM; in test [6], 72.8 µM. For the same molecule, the TGI in [7], in test [8], in [9] and in [10] was above 100 µM throughout.
With `CC(=O)O.CC(=O)O.CC(=O)O.CC(=O)O.[Rh].[Rh]`, the GI50 was 27.1 µM in [1]; 28.6 µM in test [2]; 60.6 µM in test [3]; 7.3 µM in test [4]; 20.5 µM in [5]; 18.8 µM in test [6]. The GI50 in [7] is 25.2 µM; in test [8], 17.2 µM; in test [9], 48.6 µM; in test [10], 14.9 µM. The TGI in [1] is 91 µM; in test [2], above 100 µM; in [3], above 100 µM; in [4], 30.1 µM; in [5] it was 52.4 µM; in test [6], 37.2 µM. Further, the TGI in [7] is 75.3 µM; in test [8], 61.9 µM; in test [9], above 100 µM; in test [10], above 100 µM.
